Data taken from patent US10632181B2, “Composition, containing RGD motif-containing peptide or fragment thereof, for treating burns and glaucoma, alleviating skin wrinkles, and promoting hair growth” (HUONS CO., LTD., priority 2014, dated 2020).
Positions of bridges follow the written chain, without caps; N, C: chain ends. No end group written: not given here.

Assays:
Assay type in all cases: in vivo, Women aged 30-65
[1] = tested on: wrinkles around eyes; assay: Wrinkle extent around eyes, skin replica, Visiometer SV600; parameters: R3 numerical value (average roughness): unit not given here; details: for R3 numerical value (average roughness): Before use
[2] = tested on: wrinkles around eyes; assay: Survey of subjects about wrinkle reduction effectiveness; details: for Number of subjects, wrinkle reduction survey / Percentage of subjects, wrinkle reduction survey / survey assessment about wrinkle reduction, test product versus control product: 4 weeks after use; for Mean of wrinkle reduction survey response: scale 0-4, 4 weeks after use; for survey assessment about wrinkle reduction, test product versus control product: third visit
Procedure: Furthermore, surveying the subjects about effectiveness was conducted. The subjects were asked to personally make responses about the extent to which the subjects felt that wrinkles reduced after use of test product using 5 levels: better (4), a little bit better (3), no change (2), a little bit worse (1), worse (0). The researcher determined if test product has efficacy by calculating the percentage of the number of subjects for each response.

[3] = tested on: wrinkles around eyes; assay: Expert visual assessment of wrinkles (global photodamage score); details: for expert visual assessment score: severity 0-7
Procedure: Furthermore, visual assessment was performed. At each visit before and after use, experts assessed the wrinkle extent by scoring using global photodamage score (Br J Dermatol. 2010; 162(3):497-502). To verify if there is any difference in each of control group and experimental group in 4 weeks after use, a change (%) in visual assessment scores of 2 weeks and 4 weeks after use relative to before use was analyzed. The visual assessment scores are as follows (Table 18): […]

[4] = tested on: wrinkles around eyes; assay: Wrinkle extent around eyes by 3D imaging (PRIMOS Premium); details: for Rmax numerical value (maximum height of wrinkle profile) / Rp numerical value (maximum profile peak height) / Rv numerical value (maximum profile valley depth): in µm (unit assumed)
Procedure: Furthermore, the wrinkle extent was measured by 3D imaging. A target site to measure the wrinkle extent was regions around the eyes of the subjects, and the right side of the face was set as a measurement site. To measure the wrinkle extent, the subjects were allowed to wash the measurement site with water, and take a rest for 30 minutes in the waiting room under constant temperature constant humidity conditions of indoor temperature 20-25° C. and humidity 40-60% to acclimate the skin surface temperature and humidity to the environment of the measurement space, and were not permitted to drink water during the rest. For objective measurement, measurements were performed by one researcher, and the same site was measured at each time of the first visit before use and the second and third visits in 2 and 4 weeks after use. Before use and in 2 and 4 weeks after use, images of the site to which the test product (HU022 (SEQ ID NO:1)) was applied were formed using 3D skin imaging machine (PRIMOS Premium), and to verify if there is any difference in each of control group and experimental group in 4 weeks after use, wrinkle parameters, Ra, Rmax, Rt, Rp, Rv values, in the stored images of 2 weeks and 4 weeks after use relative to before use were analyzed.

[5] = tested on: wrinkles around eyes; assay: Wrinkle extent around eyes, skin replica, Visiometer SV600; parameters: R3 numerical value (average roughness) / R1 numerical value (skin roughness) / R4 numerical value (smoothness depth) / R5 numerical value (arithmetic average roughness): unit not given here
Procedure: The extent of wrinkles around eyes was measured using equipment. A target site to measure the wrinkle extent was regions around the eyes of the subjects, and the left side and the right side of the face were set as a measurement site. To measure the wrinkle extent, the subjects were allowed to wash the measurement site with water, and take a rest for 30 minutes in the waiting room under constant temperature and constant humidity conditions of indoor temperature 20-25° C. and humidity 40-60% to acclimate the skin surface temperature and humidity to the environment of the measurement space, and were not permitted to drink water during the rest. For objective measurement, measurements were performed by one researcher, and the same site was measured at each time of the first visit before use and the second and third visits in 2 and 4 weeks after use. Transparency profilometry analysis was performed using Visiometer SV600 (Courage-Khazaka electronic GmbH, Germany) on skin replica of the site to which test product and control product were applied before use and 2 and 4 weeks after use, and to identify if there is any difference in each of control group and experimental group after use, a change (%) in R1, R2, R4, R5 measurement values in 2 and 4 weeks after use relative to before use was analyzed.

## HU022: polypeptide consisting of 452nd-509th amino acids of ADAM 15 (GenBank AAH14566.1), 58 amino acids; commercial product (EYEGENE Inc.)
[1]
  R3 numerical value (average roughness): 34.24 ± 3.51
[2]; response 0 (very bad)
  Number of subjects, wrinkle reduction survey: 0
[2]; response 1 (bad)
  Number of subjects, wrinkle reduction survey: 0
[2]; response 2 (fair)
  Number of subjects, wrinkle reduction survey: 1
  Percentage of subjects, wrinkle reduction survey: (16.7) %
[2]; response 3 (good)
  Number of subjects, wrinkle reduction survey: 5
  Percentage of subjects, wrinkle reduction survey: (83.3) %
[2]; response 4 (very good)
  Number of subjects, wrinkle reduction survey: 0
[2]
  Mean of wrinkle reduction survey response: 2.83
  survey assessment about wrinkle reduction, test product versus control product: test product was better at reducing wrinkles than control product
[3]; 2 weeks after use
  expert visual assessment score: 2.17 ± 0.75
[3]; 4 weeks after use
  expert visual assessment score: 1.67 ± 1.03
[3]; Before use
  expert visual assessment score: 2.17 ± 0.75
[3]; Before use-2 weeks after use
  Change(%) in expert visual assessment score: 0%
[3]; Before use-4 weeks after use
  Change(%) in expert visual assessment score: −23.08%
[4]; 2 weeks after use, twice daily
  Ra numerical value (roughness average of wrinkle profile): 18.20 ± 3.94
  Rt numerical value (distance between highest peak and lowest valley): 187.85 ± 34.10
  Rmax numerical value (maximum height of wrinkle profile): 168.83 ± 29.61
  Rp numerical value (maximum profile peak height): 116.47 ± 35.75
  Rv numerical value (maximum profile valley depth): 71.38 ± 16.44
[4]; 4 weeks after use, twice daily
  Ra numerical value (roughness average of wrinkle profile): 17.00 ± 3.88
  Rt numerical value (distance between highest peak and lowest valley): 184.63 ± 36.83
  Rmax numerical value (maximum height of wrinkle profile): 168.80 ± 33.21
  Rp numerical value (maximum profile peak height): 121.88 ± 38.06
  Rv numerical value (maximum profile valley depth): 62.75 ± 11.92
[4]; Before use
  Ra numerical value (roughness average of wrinkle profile): 19.19 ± 4.27
  Rt numerical value (distance between highest peak and lowest valley): 195.05 ± 31.31
  Rmax numerical value (maximum height of wrinkle profile): 176.29 ± 27.79
  Rp numerical value (maximum profile peak height): 122.73 ± 31.55
  Rv numerical value (maximum profile valley depth): 72.32 ± 17.16
[4]; Before use-2 weeks after use
  Change(%) in Ra: −5.15%
  Change(%) in Rmax: −4.23%
  Change(%) in Rp: −5.10%
  Change(%) in Rt: −3.69%
  Change(%) in Rv: −1.30%
[4]; Before use-4 weeks after use
  Change(%) in Ra: −11.42%
  Change(%) in Rmax: −4.25%
  Change(%) in Rp: −0.70%
  Change(%) in Rt: −5.35%
  Change(%) in Rv: −13.24%
[5]; 2 weeks after use, twice daily
  R1 numerical value (skin roughness): 54.59 ± 10.99
  R2 numerical value (maximum roughness): 36.87 ± 6.02
  R3 numerical value (average roughness): 24.41 ± 4.16
  R4 numerical value (smoothness depth): 23.64 ± 5.11
  R5 numerical value (arithmetic average roughness): 9.44 ± 2.44
[5]; 4 weeks after use, twice daily
  R1 numerical value (skin roughness): 51.06 ± 19.28
  R2 numerical value (maximum roughness): 29.16 ± 5.12
  R3 numerical value (average roughness): 18.62 ± 2.79
  R4 numerical value (smoothness depth): 22.94 ± 10.03
  R5 numerical value (arithmetic average roughness): 10.10 ± 5.97
[5]; Before use
  R1 numerical value (skin roughness): 76.23 ± 12.15
  R2 numerical value (maximum roughness): 54.26 ± 5.70
  R4 numerical value (smoothness depth): 30.41 ± 7.01
  R5 numerical value (arithmetic average roughness): 13.57 ± 3.65
[5]; Before use-2 weeks after use
  Change(%) in R1: −28.38%
  Change(%) in R4: −22.27%
  Change(%) in R5: −30.43%
[5]; Before use-4 weeks after use
  Change(%) in R1: −33.02%
  Change(%) in R3: −45.62%
  Change(%) in R4: −24.57%
  Change(%) in R5: −26.52%

## HU024 (RPTRGDCDLPEFCPG; disulfide 7-13; listed as Homo sapiens)
[1]
  R3 numerical value (average roughness): 29.15 ± 5.56
[1]; Before use-2 weeks after use
  Change(%) in R3: −28.66%
[2]; response 0 (very bad)
  Number of subjects, wrinkle reduction survey: 0
[2]; response 1 (bad)
  Number of subjects, wrinkle reduction survey: 0
[2]; response 2 (fair)
  Number of subjects, wrinkle reduction survey: 1
  Percentage of subjects, wrinkle reduction survey: (16.7) %
[2]; response 3 (good)
  Number of subjects, wrinkle reduction survey: 4
  Percentage of subjects, wrinkle reduction survey: (66.7) %
[2]; response 4 (very good)
  Number of subjects, wrinkle reduction survey: 1
  Percentage of subjects, wrinkle reduction survey: (16.7) %
[2]
  Mean of wrinkle reduction survey response: 3.00
  survey assessment about wrinkle reduction, test product versus control product: test product was better at reducing wrinkles than control product
[3]; 2 weeks after use
  expert visual assessment score: 2.00 ± 0.63
[3]; 4 weeks after use
  expert visual assessment score: 1.67 ± 0.82
[3]; Before use
  expert visual assessment score: 2.00 ± 0.63
[3]; Before use-2 weeks after use
  Change(%) in expert visual assessment score: 0%
[3]; Before use-4 weeks after use
  Change(%) in expert visual assessment score: −16.67%
[4]; 2 weeks after use, twice daily
  Ra numerical value (roughness average of wrinkle profile): 18.33 ± 2.12
  Rt numerical value (distance between highest peak and lowest valley): 216.37 ± 41.76
  Rmax numerical value (maximum height of wrinkle profile): 198.77 ± 39.74
  Rp numerical value (maximum profile peak height): 155.24 ± 43.18
  Rv numerical value (maximum profile valley depth): 61.12 ± 8.02
[4]; 4 weeks after use, twice daily
  Ra numerical value (roughness average of wrinkle profile): 17.71 ± 2.43
  Rt numerical value (distance between highest peak and lowest valley): 210.60 ± 38.61
  Rmax numerical value (maximum height of wrinkle profile): 196.85 ± 39.02
  Rp numerical value (maximum profile peak height): 153.78 ± 36.12
  Rv numerical value (maximum profile valley depth): 56.82 ± 12.01
[4]; Before use
  Ra numerical value (roughness average of wrinkle profile): 18.64 ± 3.19
  Rt numerical value (distance between highest peak and lowest valley): 225.94 ± 45.00
  Rmax numerical value (maximum height of wrinkle profile): 206.55 ± 40.54
  Rp numerical value (maximum profile peak height): 160.85 ± 37.51
  Rv numerical value (maximum profile valley depth): 65.09 ± 11.95
[4]; Before use-2 weeks after use
  Change(%) in Ra: −0.75%
  Change(%) in Rmax: −3.77%
  Change(%) in Rp: −3.48%
  Change(%) in Rt: −4.24%
  Change(%) in Rv: −6.10%
[4]; Before use-4 weeks after use
  Change(%) in Ra: −4.10%
  Change(%) in Rmax: −4.69%
  Change(%) in Rp: −4.40%
  Change(%) in Rt: −6.79%
  Change(%) in Rv: −12.71%
[5]; 2 weeks after use, twice daily
  R1 numerical value (skin roughness): 57.29 ± 3.21
  R2 numerical value (maximum roughness): 30.71 ± 6.57
  R3 numerical value (average roughness): 20.80 ± 3.97
  R4 numerical value (smoothness depth): 26.24 ± 2.90
  R5 numerical value (arithmetic average roughness): 11.58 ± 0.89
[5]; 4 weeks after use, twice daily
  R1 numerical value (skin roughness): 45.23 ± 13.77
  R2 numerical value (maximum roughness): 28.67 ± 7.47
  R3 numerical value (average roughness): 17.81 ± 4.00
  R4 numerical value (smoothness depth): 20.64 ± 6.07
  R5 numerical value (arithmetic average roughness): 8.42 ± 3.48
[5]; Before use
  R1 numerical value (skin roughness): 71.33 ± 15.86
  R2 numerical value (maximum roughness): 46.06 ± 11.62
  R4 numerical value (smoothness depth): 31.44 ± 11.04
  R5 numerical value (arithmetic average roughness): 13.52 ± 5.43
[5]; Before use-2 weeks after use
  Change(%) in R1: −19.68%
  Change(%) in R4: −16.54%
  Change(%) in R5: −14.36%
[5]; Before use-4 weeks after use
  Change(%) in R1: −36.59%
  Change(%) in R3: −54.55%
  Change(%) in R4: −34.36%
  Change(%) in R5: −37.71%
